Data published in a melting point compilation (Tetko et al.; mined from patent text by program, amines drawn as free bases though some values may be those of a salt).

SMILES	melting point
CN1CC[C@H]2Cc3[nH][nH]c(=O)c3C[C@@H]2C1 (relative stereo)	245 to 247 °C
N#Cc1cc([N+](=O)[O-])ccc1OCc1ccc2ccccc2n1	161 to 162 °C
CC(=O)OCC(=O)C1(O)CCC2C3CCC4=CC(=O)C=CC4(C)C3C(O[Si](C)(C)C)CC21C (stereo not drawn)	180 to 184 °C
CC(=O)N1c2c(ccn3c(C)c(C)nc23)[C@@H](O)[C@H](OC(=O)C(C)(C)C)[C@H]1c1ccccc1	103 to 105 °C
O=C(O)c1ccc(OCCNC(=O)C2Cc3ccccc3N2S(=O)(=O)c2ccc(-c3ccc(F)cc3)cc2)cc1F (stereo not drawn)	109 to 113 °C
OCc1cc(-c2ccc(Cl)c(Cl)c2)n(Cc2cccc(Cl)c2)n1	95 °C
CC(CCCl)C(=O)Nc1nnc(C(C)(C)C)s1 (stereo not drawn)	124 to 126 °C
CCNC(=Nc1ccccc1N1CCOCC1)NCC	101 to 102 °C
CC1(C)CCC(C)(C)c2cc(C3(c4ccc(C(=O)O)cc4)OCCO3)c(OCc3ccccc3)cc21	222 to 228 °C
COc1ccc(C(NCc2cccc(F)c2)c2cccc(Nc3c(N)c(=O)c3=O)c2)cc1 (stereo not drawn)	209 to 212 °C
CCC(C)OC1OC(C(O)N(CC(C)C)C(=O)N(CCCl)N=O)C(O)C1O (stereo not drawn)	80 to 82 °C
CC1CC(=O)N(c2ccccc2)c2cc(Cl)ccc2N1 (stereo not drawn)	167 to 168 °C
Cc1noc(-c2ncn3c2[C@@H]2CCCN2C(=O)c2c-3ccc(F)c2Cl)n1	245 to 246 °C
CCOC(=O)c1ccccc1Nc1c([N+](=O)[O-])cc(C(F)(F)F)cc1[N+](=O)[O-]	152 to 154 °C
CC(C)N1CN(C(=O)c2c(F)cccc2F)C(=O)N(c2ccc(Cl)cc2)C1	130 to 131 °C
OC(c1ccccc1)(c1cccs1)C1CCN(CCc2ccccc2)CC1 (stereo not drawn)	143 to 144 °C
CC(O)CCc1ccc2c(c1)C(=O)c1ccccc1-2 (stereo not drawn)	77 to 78 °C
c1ccc(-c2ccc3nc(-c4ccccc4)oc3n2)cc1	151 to 152 °C
CC1(C)C(=O)N(c2ccc(C#N)c(C(F)(F)F)c2)C(=O)N1CC1CC1CN1C(=O)N(c2ccc(C#N)c(C(F)(F)F)c2)C(=O)C1(C)C (stereo not drawn)	178 to 180 °C
O=S(=O)(Nc1ccc(F)cc1C(=NOc1ccc(Cl)cc1)c1ccccc1)C(F)(F)F	90 to 93 °C
CC1(c2cccc3c2CCc2ccccc2C3=O)OCCO1	144 to 145 °C
C=CCOc1ccc2cc(Br)ccc2c1	35 to 37 °C
CC(=O)Nc1nc(CCc2ccc(CCNC(=N)N)s2)cs1	122 to 123 °C

SMILES	melting point
Oc1ccc(-c2noc3cc(O)ccc23)cc1	192 to 194 °C
O=c1ccn(C2CCCO2)c(=O)[nH]1 (stereo not drawn)	99 to 101 °C
NCc1nnc2n1-c1sc(Cl)cc1C(c1ccccc1Cl)=NC2	190 to 192 °C
O=c1ccn(CCO)c(C(O)c2ccccc2F)c1O (stereo not drawn)	177 to 178 °C
CCc1cc(C=O)ccc1N=C1SCC2(CCCC2)N1C1CCCC1	104 to 105 °C
COc1cc(-c2oc3ccccc3c(=O)c2C(=O)NCCCCN2CCN(c3ccccn3)CC2)cc(OC)c1OC	168 to 173 °C
COC(=O)c1cc(C(=O)CNC(C)(C)Cc2ccc3c(c2)OCO3)ccc1OCc1ccccc1	134 to 141 °C
CCS(=O)(=O)N[C@H](C(=O)NCCc1ccc(OC/C=C\c2ccc(Cl)cc2)c(OC)c1)C(C)C	141 to 143 °C
O=C1N[C@@H](SC(c2ccccc2)(c2ccccc2)c2ccccc2)[C@@H]1CO (relative stereo)	160 to 162 °C
O=C(O)c1ccccc1COc1cccc(Br)c1	158 to 159 °C
COc1c(OC)c(OC)c2c(c1OC)c(=O)c1ccc(OCc3ccccc3)c(OC)c1n2C	127 to 128 °C
CC(=O)Nc1ccc(S(=O)(=O)Nc2cccnc2Nc2ccccc2)cc1	234 to 236 °C
CON(C)C(=O)Cc1cc(Oc2ccc(C(F)(F)F)cc2Cl)ccc1[N+](=O)[O-]	134 to 135 °C
Cc1nnc2n1-c1ccc(C#CCN3C(=O)C4CC=CCC4C3=O)cc1C(c1ccccc1F)=NC2 (stereo not drawn)	259 to 261 °C
NCCC(O)(c1ccccc1)c1ccccc1	134 to 136 °C
COc1ccc2c(c1)C(c1ccccc1)NC(=O)N2CC(F)(F)F (stereo not drawn)	168 to 169 °C
N#Cc1cccnc1N1CCN(CC(=O)Nc2ccc(F)c(C(F)(F)F)c2)CC1	120 to 122 °C
COc1cc(-c2cc(C(F)(F)F)nn2-c2ccc(S(C)(=O)=O)cc2)ccc1-c1cocn1	171 to 173 °C
O=C(O)[C@H](Cc1ccc(C(F)(F)F)cc1)[C@@H](O)c1ccc(F)c(F)c1 (racemic)	76 to 77 °C
NCC#Cc1ccc(Cl)cc1C(=O)c1ccccc1Cl	81 to 89 °C
O=C(O)Cn1c(=O)n(S(=O)(=O)c2ccc(Cl)cc2)c(=O)c2ccc(Cl)cc21	194 to 195 °C
CO[C@@H](C(=O)N[C@H]1CC[C@@H](OC(=O)C=Cc2ccccc2)CNC1=O)[C@H](O)[C@@H](O)[C@H](O)/C=C/C(C)(C)C	83 to 85 °C
O=[N+]([O-])c1c(Cl)ccc(S(=O)(=O)Oc2ccccc2)c1Cl	91 °C

SMILES	melting point
COc1cc2ccc(-c3cc(OCc4ccccc4)c(OC)cc3[N+](=O)[O-])cc2cc1OC	151 to 153 °C
COCC[C@H]1CN(C2=Nc3ccccc3Nc3ccc(C(F)(F)F)cc32)CCN1C	48 to 56 °C
CCCCc1cccc2[nH]c(C(=O)O)cc(=O)c12	269 to 270 °C
CC(=O)Nc1cc(Br)c(O)c(Br)c1	155 to 156 °C
COc1ccc(-c2cc(=S)n(Cc3ccc(F)cc3F)nc2-c2ccc(OC)cc2)cc1	175 to 176 °C
O=c1[nH]c2ccccc2n1CCCN1CCC(OC(c2ccccc2)c2ccccc2)CC1	149 °C
CCOC(=O)C(=O)CC(=O)c1cn(Cc2cccc(OC)c2)c2ccccc2c1=O	177 to 179 °C
N#CC(C(=O)N1CCOCC1)=C1Nc2ccccc2O1	217 to 219 °C
CCC(CC)Nc1nc(Cc2cc(OC)c(OC)c(OC)c2)nc2sc(C#N)c(C)c12	127 to 129 °C
CC(=O)OCc1c(-c2ccccc2)oc2c(CO)cccc2c1=O	204 to 206 °C
CCCCCS(=O)(=O)NC(=O)/C=C/c1cc(OCCOC)nn1Cc1ccc(Cl)cc1Cl	82 to 85 °C
O=C1Nc2ccc(Cl)cc2[C@@](/C=C/C2CC2)(C(F)(F)F)O[C@H]1C1CC1 (relative stereo)	143 to 144 °C
O=C1Nc2ccccc2SC1CCCCO (stereo not drawn)	101 to 102 °C
NC(=O)NNC(c1ccccc1)c1ccccc1	182 to 184 °C
O=C(C[C@@H](CCCC1CCCCC1)c1nc(CNC2CCC2)no1)NO	82 to 83.9 °C
Oc1ccc([C@@H]2CCc3cc(O)ccc3[C@@H]2Cn2ccnc2)cc1 (relative stereo)	238 °C
CN1C(=O)CC[C@]2(C)c3ccc(CCc4ccc5ccccc5c4)cc3CC[C@@H]12	109 to 110 °C
Cc1cccc(NS(=O)(=O)c2ccc([N+](=O)[O-])cc2)c1	121 to 124 °C
O=[N+]([O-])c1ccc(-c2cc(Br)sc2-c2ccc(F)cc2)cc1	129 to 130 °C
O=C(CCl)NC[C@@H]1CN2C(=O)C[C@H]2O1 (racemic)	65 to 66.4 °C
FS(F)(F)(F)(F)c1cc(Br)cc(S(F)(F)(F)(F)F)c1	65.9 to 66.4 °C

More lines, now with the values ahead:

melting point	SMILES
83 to 84 °C	CCOc1nn(-c2ccc(C(F)(F)F)cn2)cc1CCCOc1ccccc1CC(=O)O
88 to 89.5 °C	CCC(CC)Nc1c([N+](=O)[O-])cc(C(C)C)c(C=CN(C)C)c1[N+](=O)[O-]
158 °C	C[C@H](NC(=O)OC(C)(C)C)C(=O)Oc1c[nH]c2ccccc12
136 to 137 °C	Cc1noc(NS(=O)(=O)c2ccccc2-c2ccccn2)c1C
95 to 96 °C	C#Cc1ccc(OC)c(OCC)c1
213 to 215 °C	CN(N)c1ncnc2c1cnn2C
118 to 119 °C	ClCc1ccc(OCc2ccc3ccccc3n2)nc1
118 to 120 °C	CCOC(=O)C1=C(CC)NCN(c2ccc(Cl)cc2)C1=O
86 to 87 °C	C(=C\c1nc(COc2cccc(CCCn3ccnc3)c2)co1)/c1ccccc1
134 to 136 °C	Cc1c[nH]c(C)c1CCC(=O)O
146 to 147 °C	COc1cc(C(C)C)c2c(c1)S(=O)(=O)N(COc1cc(C)nn1C)C2=O
174 to 178 °C	COc1ccc(S(C)(=O)=O)cc1N
60 to 65 °C	CN(C)CCCNC(=O)c1ccccc1-c1nnc(CSCCOc2ccccc2)o1
160 °C	Cn1c(=O)cnn(-c2cc(Cl)c(C(C#N)c3ccc(Cl)cc3)c(Cl)c2)c1=O (stereo not drawn)
166 to 168 °C	Clc1ccc(-c2nnnn2Cc2cccnc2)cc1Cl
167 to 170 °C	Cc1ccc(OC2SCC(O)C(O)C2O)c(F)n1 (stereo not drawn)

melting point	SMILES
103 to 104 °C	COC(=O)NCCOC(=O)C(C)Oc1ccc(Oc2cnc3cc(Cl)ccc3n2)cc1 (stereo not drawn)
123 °C	COc1ccc(OCCCN2CCN(c3ccc(Cl)nn3)CC2)cc1
282 to 285 °C	COc1cc2ncc(C#N)c(Nc3ccc(F)cc3)c2cc1OC
162 to 163 °C	COC(=O)c1nnc(Cl)cc1NCc1ccc(OC)c(Cl)c1
195 to 196 °C	CCNC1CN(c2c(F)cc3c(=O)c(C(=O)O)cn(-c4nc(N)c(F)cc4F)c3c2Br)C1
180 °C	CCCCNC(=S)N1CCc2[nH]cnc2C1CC (stereo not drawn)
210 to 212 °C	Cc1ccnc2c1nc(-c1cccnc1N)n2-c1ccc(CN)cc1
155 to 157 °C	Cc1nc(CC2OC(COC(=O)c3ccccc3)C(O)C2O)n2nc(Cl)ccc12 (stereo not drawn)
85 to 87 °C	Cn1cc(C#N)c([N+](=O)[O-])n1
158 to 159 °C	COc1ccc(/C=C(\C#N)c2cc(OC)c(OC)c(OC)c2)cc1[N+](=O)[O-]
168 to 170 °C	COc1ccc(-c2cc(-c3nc(C)cs3)c(=O)n(C)c2-c2cnccn2)cc1
189 to 190 °C	O=C(CCCOc1cccc(CNC(=O)c2nc3ccccc3c(=O)[nH]2)c1)Nc1nc[nH]n1
182 to 184 °C	NC1=NN(c2ccc(Cl)c(Cl)c2)CC1
100 to 103 °C	CC(C)(C)OC(=O)NC(C)(C)c1ccc(Br)nc1
203 °C	CC(C)(N)c1ccc(-c2nc(Nc3ccc(F)cc3F)ncc2C#N)cc1
